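The compound was tested at five concentrations on cells cultured in 96-well plates, with a 48-hour exposure period. Abbreviation: GI50, concentration required for 50% inhibition of growth.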 The source made the active and inactive calls. Rule as the data show it: active = GI50 up to about 1.1 µM and inactive = higher.
Assays:
Test in all cases: DTP human tumour cell line panel, 48 h
ACHN = system: ACHN
MDA-MB-231 = system: MDA-MB-231
RXF 393 = system: RXF 393
HCT-116 = system: HCT-116
HL-60 = system: HL-60
RPMI-8226 = system: RPMI-8226
SF-295 = system: SF-295
SK-MEL-5 = system: SK-MEL-5
786-0 = system: 786-0
T47D = system: T47D
DU-145 = system: DU-145
KM12 = system: KM12
K562 = system: K562
MDA-N = system: MDA-N
TK-10 = system: TK-10
UACC-257 = system: UACC-257
OVCAR-8 = system: OVCAR-8
HT-29 = system: HT-29
SK-MEL-28 = system: SK-MEL-28
NCI/ADR-RES = system: NCI/ADR-RES
IGROV-1 = system: IGROV-1
HOP-62 = system: HOP-62
A549 = system: A549
OVCAR-3 = system: OVCAR-3
SN12C = system: SN12C
A498 = system: A498
CAKI-1 = system: CAKI-1
LOX IMVI = system: LOX IMVI
CCRF-CEM = system: CCRF-CEM
SW-620 = system: SW-620
MCF7 = system: MCF7
OVCAR-4 = system: OVCAR-4
NCI-H23 = system: NCI-H23
MOLT-4 = system: MOLT-4
PC-3 = system: PC-3
EKVX = system: EKVX
SNB-75 = system: SNB-75
M14 = system: M14
HCT-15 = system: HCT-15
U-251 = system: U-251
HOP-92 = system: HOP-92
BT-549 = system: BT-549
SF-539 = system: SF-539
COLO 205 = system: COLO 205
OVCAR-5 = system: OVCAR-5
SK-OV-3 = system: SK-OV-3
NCI-H226 = system: NCI-H226
SK-MEL-2 = system: SK-MEL-2
MDA-MB-435 = system: MDA-MB-435
UO-31 = system: UO-31
SNB-19 = system: SNB-19
SR = system: SR
HCC 2998 = system: HCC 2998
Malme-3M = system: Malme-3M
UACC-62 = system: UACC-62
NCI-H522 = system: NCI-H522
NCI-H460 = system: NCI-H460
SF-268 = system: SF-268

O=C(Nc1nnc(-c2c(Cl)c(Cl)c(Cl)c(Cl)c2-c2nc3cc(C(=O)c4ccccc4)ccc3[nH]2)o1)c1ccccc1
GI50 (ACHN): 19.5 µM (inactive) | GI50 (MDA-MB-231): 17.7 µM (inactive) | GI50 (RXF 393): 12.3 µM (inactive) | GI50 (HCT-116): 23.3 µM (inactive) | GI50 (HL-60): 11.4 µM (inactive) | GI50 (RPMI-8226): 12.4 µM (inactive) | GI50 (SF-295): 9.46 µM (inactive) | GI50 (SK-MEL-5): 5.07 µM (inactive) | GI50 (786-0): 16.8 µM (inactive) | GI50 (T47D): 16.4 µM (inactive) | GI50 (DU-145): 17.5 µM (inactive) | GI50 (KM12): 23.2 µM (inactive) | GI50 (K562): 5.78 µM (inactive) | GI50 (MDA-N): 3.19 µM (inactive) | GI50 (TK-10): 21.8 µM (inactive) | GI50 (UACC-257): 23.2 µM (inactive) | GI50 (OVCAR-8): 26.9 µM (inactive) | GI50 (HT-29): 23.8 µM (inactive) | GI50 (SK-MEL-28): 12.1 µM (inactive) | GI50 (NCI/ADR-RES): 14 µM (inactive) | GI50 (IGROV-1): 13.6 µM (inactive) | GI50 (HOP-62): 10.4 µM (inactive) | GI50 (A549): 14.9 µM (inactive) | GI50 (OVCAR-3): 15 µM (inactive) | GI50 (SN12C): 15.3 µM (inactive) | GI50 (A498): 18.2 µM (inactive) | GI50 (CAKI-1): 32.3 µM (inactive) | GI50 (LOX IMVI): 15.1 µM (inactive) | GI50 (CCRF-CEM): 8.36 µM (inactive) | GI50 (SW-620): 19.9 µM (inactive) | GI50 (MCF7): 10.9 µM (inactive) | GI50 (OVCAR-4): 21 µM (inactive) | GI50 (NCI-H23): 18.9 µM (inactive) | GI50 (MOLT-4): 13.7 µM (inactive) | GI50 (PC-3): 13 µM (inactive) | GI50 (EKVX): 17.9 µM (inactive) | GI50 (SNB-75): 15.1 µM (inactive) | GI50 (M14): 15.4 µM (inactive) | GI50 (HCT-15): 9.98 µM | GI50 (U-251): 13.6 µM (inactive) | GI50 (HOP-92): 15.5 µM (inactive) | GI50 (BT-549): 23.5 µM (inactive) | GI50 (SF-539): 11.5 µM (inactive) | GI50 (COLO 205): 12.2 µM (inactive) | GI50 (OVCAR-5): 26.4 µM (inactive) | GI50 (SK-OV-3): 18.9 µM (inactive) | GI50 (NCI-H226): 16.7 µM (inactive) | GI50 (SK-MEL-2): 17.7 µM (inactive) | GI50 (MDA-MB-435): 3.89 µM (inactive) | GI50 (UO-31): 31.8 µM (inactive) | GI50 (SNB-19): 15.2 µM (inactive) | GI50 (SR): 4.9 µM (inactive)

CCOP(=O)(OCC)C(N)Cc1ccc(OC)c(OC)c1 (stereo unspecified)
GI50 (ACHN): > 100 µM (inactive) | GI50 (MDA-MB-231): > 100 µM (inactive) | GI50 (RXF 393): > 100 µM (inactive) | GI50 (HCT-116): > 100 µM (inactive) | GI50 (HL-60): > 100 µM (inactive) | GI50 (RPMI-8226): > 100 µM (inactive) | GI50 (SF-295): > 100 µM (inactive) | GI50 (SK-MEL-5): > 100 µM (inactive) | GI50 (786-0): > 100 µM (inactive) | GI50 (T47D): > 100 µM (inactive) | GI50 (DU-145): > 100 µM (inactive) | GI50 (KM12): > 100 µM (inactive) | GI50 (K562): > 100 µM (inactive) | GI50 (MDA-N): > 100 µM (inactive) | GI50 (TK-10): > 100 µM (inactive) | GI50 (UACC-257): > 100 µM (inactive) | GI50 (OVCAR-8): > 100 µM (inactive) | GI50 (HT-29): > 100 µM (inactive) | GI50 (SK-MEL-28): > 100 µM (inactive) | GI50 (HCC 2998): > 100 µM (inactive) | GI50 (NCI/ADR-RES): > 100 µM (inactive) | GI50 (IGROV-1): > 100 µM (inactive) | GI50 (Malme-3M): > 100 µM (inactive) | GI50 (UACC-62): > 100 µM (inactive) | GI50 (A549): > 100 µM (inactive) | GI50 (OVCAR-3): > 100 µM (inactive) | GI50 (SN12C): > 100 µM (inactive) | GI50 (A498): > 100 µM (inactive) | GI50 (CAKI-1): > 100 µM (inactive) | GI50 (CCRF-CEM): > 100 µM (inactive) | GI50 (SW-620): > 100 µM (inactive) | GI50 (MCF7): 45.3 µM (inactive) | GI50 (OVCAR-4): > 100 µM (inactive) | GI50 (NCI-H23): > 100 µM (inactive) | GI50 (MOLT-4): > 100 µM (inactive) | GI50 (PC-3): > 100 µM (inactive) | GI50 (SNB-75): > 100 µM (inactive) | GI50 (M14): > 100 µM (inactive) | GI50 (HCT-15): > 100 µM | GI50 (U-251): > 100 µM (inactive) | GI50 (HOP-92): > 100 µM (inactive) | GI50 (BT-549): > 100 µM (inactive) | GI50 (SF-539): > 100 µM (inactive) | GI50 (COLO 205): > 100 µM (inactive) | GI50 (OVCAR-5): > 100 µM (inactive) | GI50 (NCI-H522): > 100 µM (inactive) | GI50 (NCI-H226): > 100 µM (inactive) | GI50 (SK-MEL-2): > 100 µM (inactive) | GI50 (MDA-MB-435): > 100 µM (inactive) | GI50 (UO-31): > 100 µM (inactive) | GI50 (SNB-19): > 100 µM (inactive) | GI50 (NCI-H460): > 100 µM (inactive) | GI50 (SF-268): > 100 µM (inactive) | GI50 (SR): > 100 µM (inactive)
